According to patent US7348347B2, “Substituted 4,5,6,7-tetrahydrobenzthiazol-2-ylamine compounds” (Gruenenthal GmbH, priority 2004, dated 2008):

Each compound was assayed against T1, 5-HT uptake (Rattus norvegicus, UniProt P31652) (assay: Inhibition of 5-HT uptake in rat brain synaptosomes). Conditions: rat synaptosomes (and pons), [3H]-5-HT.
T1 construct: from tissue; host or cells: rat brain synaptosomes (P2 fraction) from marrow (medulla) and pons
T1 sequence (P31652 whole entry): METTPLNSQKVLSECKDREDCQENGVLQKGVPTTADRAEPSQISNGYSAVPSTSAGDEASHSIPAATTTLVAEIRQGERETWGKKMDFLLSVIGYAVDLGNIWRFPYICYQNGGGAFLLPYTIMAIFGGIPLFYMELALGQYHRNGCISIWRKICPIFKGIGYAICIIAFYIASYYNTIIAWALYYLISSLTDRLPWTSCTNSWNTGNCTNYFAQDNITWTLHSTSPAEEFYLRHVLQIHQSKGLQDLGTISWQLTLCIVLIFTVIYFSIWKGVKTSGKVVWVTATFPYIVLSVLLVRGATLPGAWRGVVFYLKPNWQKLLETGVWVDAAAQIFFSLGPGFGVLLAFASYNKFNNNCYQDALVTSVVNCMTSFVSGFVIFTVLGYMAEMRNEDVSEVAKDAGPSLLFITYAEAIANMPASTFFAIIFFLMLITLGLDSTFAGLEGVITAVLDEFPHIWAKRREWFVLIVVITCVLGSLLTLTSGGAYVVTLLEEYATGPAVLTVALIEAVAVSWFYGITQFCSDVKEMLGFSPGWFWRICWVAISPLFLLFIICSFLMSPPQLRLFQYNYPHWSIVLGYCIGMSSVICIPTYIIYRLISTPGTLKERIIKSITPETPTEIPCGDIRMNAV
Format: biochemical
Procedure: The relevant literature reference is enclosed herein by reference and is to be regarded as part of the disclosure.
The homogenate is centrifuged at 4° C. for 10 minutes at 1000 g. Following subsequent centrifugation at 17,000 g for 55 minutes, the synaptosomes (P2 fraction) are obtained, which are then resuspended in 0.32 M […] (0.5 mL/100 mg of the original weight).
The respective uptake was measured in a 96 well microtiter plate. The volume was 250 μL and the incubation was carried out at room temperature (ca 20-25° C.) under a blanket of oxygen.
The 96 samples through were then filtered through a Unifilter GF/B® microtiter plate (Packard) and washed with 200 mL of incubated buffer with the aid of a “Brabdel Cell-Harvester MPXRI 96T”. The Unifilter GF/B plate was dried at 55° C. over a period of 1 h. The plate was then sealed with a back seal® (Packard) and there were then added 35 μL of scintillant fluid per well (Ultima Gold, Packard).
A detailed description of the method is disclosed in the literature, for example, in M. Ch.
In the case of “2-[2-(3,5-Difluorophenyl)acetylamino]-4,5,6,7-tetrahydrobenzthiazol-4-carboxylic acid[1-(2-ethoxybenzyl)pyrrolidin-3-yl]methylamide [Example 44]”, the “% Inhibition of 5-HT uptake [10 μM]” value is reported as 41%. For `CN1CCCN(C(=O)C2CCCc3sc(NC(=O)COc4ccccc4)nc32)CC1` (stereo not shown) [Example 2, N-[4-(4-Methyl-[1,4]diazepam-1-carbonyl)-4,5,6,7-tetrahydrobenzthiazol-2-yl]-2-phenoxy acetamide], the “% Inhibition of 5-HT uptake [10 μM]” value was 58%.

Same assay, conditions: rat synaptosomes (medulla and pons), [3H]-5-HT
With `CCOc1ccccc1C(=O)Nc1nc2c(s1)CCCC2C(=O)NCCCN(C)c1ccccc1` (stereo not shown) [Example 69, 2-(2-Ethoxybenzoylamino)-4,5,6,7-tetrahydrobenzthiazol-4-carboxylic acid[3-(methylphenyl-amino)propyl]amide] the “% Inhibition of 5-HT uptake [10 μM]” value was 80%. With `O=C(Nc1nc2c(s1)CCCC2C(=O)N1CCN(Cc2ccccc2F)CC1)c1ccc2ccccc2c1` (stereo not shown) [Example 53, Naphthalene-2-carboxylic acid{4-[4-(2-fluorobenzyl)piperazin-1-carbonyl]-4,5,6,7-tetrahydrobenzthiazol-2-yl}amide] the “% Inhibition of 5-HT uptake [10 μM]” value was 42%. With `CN(C)c1ccc(CNC(=O)C2CCCc3sc(NC(=O)c4ccc5ccccc5c4)nc32)cc1` (stereo not shown) [Example 45, 2-[(Naphthalene-2-carbonyl)amino]-4,5,6,7-tetrahydrobenzthiazol-4-carboxylic acid 4-dimethylaminobenzylamide] the inhibition at 10 µM was 42%. `O=C(CCc1ccccc1)Nc1nc2c(s1)CCCC2C(=O)N1CCN(c2ccc(C(F)(F)F)cn2)CC1` (stereo not shown) [Example 70, 3-Phenyl-N-{4-[4-(5-trifluoromethylpyridin-2-yl)piperazin-1-carbonyl]-4,5,6,7-tetrahydrobenzthiazol-2-yl}propionamide] showed an inhibition at 10 µM of 44%. `CN1CCN(C(=O)C2CCCc3sc(NC(=O)c4ccc5ccccc5c4)nc32)CC1` (stereo not shown) [Example 4, Naphthalene-2-carboxylic acid[4-(4-methylpiperazin-1-carbonyl)-4,5,6,7-tetrahydrobenzthiazol-2-yl]amide] was tested, and the “% Inhibition of 5-HT uptake [10 μM]” value was 48%. Work on `CN(C)CCCNC(=O)C1CCCc2sc(NC(=O)CC(C)(C)C)nc21` (stereo not shown) [Example 24, 2-(3,3-Dimethylbutyrylamino)-4,5,6,7-tetrahydrobenzthiazol-4-carboxylic acid(3-dimethylaminopropyl)amide] yielded an inhibition at 10 µM of 89%. `O=C(Cc1cc(F)cc(F)c1)Nc1nc2c(s1)CCCC2C(=O)N1CCCC1CN1CCCC1` (stereo not shown) [Example 57, 2-(3,5-Difluorophenyl)-N-[4-(2-pyrrolidin-1-ylmethylpyrrolidin-1-carbonyl)-4,5,6,7-tetrahydrobenzthiazol-2-yl]acetamide] gave an inhibition at 10 µM of 72%. `Cc1cc(C)cc(C(=O)Nc2nc3c(s2)CCCC3C(=O)NC2CCN(Cc3ccccc3SC(C)(C)C)C2)c1` (stereo not shown) [Example 35] was tested, and the “% Inhibition of 5-HT uptake [10 μM]” value was 41%. For `COc1ccc(C(=O)Nc2nc3c(s2)CCCC3C(=O)N2CCN(Cc3ccc(Cl)cc3)CC2)cc1` (stereo not shown) [Example 25, N-{4-[4-(4-Chlorobenzyl)piperazin-1-carbonyl]-4,5,6,7-tetrahydrobenzthiazol-2-yl}-4-methoxybenzamide], the inhibition at 10 µM was 53%. In the case of `CCCCCC(=O)Nc1nc2c(s1)CCCC2C(=O)N1CCN(Cc2cc3ccccc3o2)CC1` (stereo not shown) [Example 65, Hexanoic acid[4-(4-benzofuran-2-ylmethylpiperazin-1-carbonyl)-4,5,6,7-tetrahydrobenzthiazol-2-yl]amide], the “% Inhibition of 5-HT uptake [10 μM]” value is reported as 44%. For `O=C(C=Cc1ccco1)Nc1nc2c(s1)CCCC2C(=O)N1CCN(c2cccc(C(F)(F)F)c2)CC1` (stereo not shown) [Example 76, 3-Furan-2-yl-N-{4-[4-(3-trifluoromethylphenyl)piperazin-1-carbonyl]-4,5,6,7-tetrahydrobenzthiazol-2-yl}acrylamide], the inhibition at 10 µM was 62%. In the case of `O=C(Cc1cc(F)cc(F)c1)Nc1nc2c(s1)CCCC2C(=O)NCC1CCN(Cc2c(Cl)cccc2Cl)C1` (stereo not shown) [Example 62, 2-[2-(3,5-Difluorophenyl)acetylamino]-4,5,6,7-tetrahydrobenzthiazol-4-carboxylic acid[1-(2,6-dichlorobenzyl)pyrrolidin-3-yl]methylamide], the “% Inhibition of 5-HT uptake [10 μM]” value is reported as 53%. Compound `COc1ccccc1CC(=O)Nc1nc2c(s1)CCCC2C(=O)N1CCN(Cc2cc(OC)c3c(c2)OCO3)CC1` (stereo not shown) [Example 6, N-{4-[4-(7-Methoxybenzo[1, 3]dioxol-5-ylmethyl)piperazin-1-carbonyl]-4,5,6,7-tetrahydrobenzthiazol-2-yl}-2-(2-methoxyphenyl)acetamide] has an inhibition at 10 µM of 51%. In the case of `CC(C)(C)CC(=O)Nc1nc2c(s1)CCCC2C(=O)N1CCN(c2ccc(C(F)(F)F)cn2)CC1` (stereo not shown) [Example 86, 3,3-Dimethyl-N-{4-[4-(5-trifluoromethylpyridin-2-yl)piperazin-1-carbonyl]-4,5,6,7-tetrahydrobenzthiazol-2-yl}butyramide], the inhibition at 10 µM is reported as 54%. With `CN1CCCC1CCNC(=O)C1CCCc2sc(NC(=O)COc3ccc(F)cc3)nc21` (stereo not shown) [Example 46, 2-[2-(4-Fluorophenoxy)acetylamino]-4,5,6,7-tetrahydrobenzthiazol-4-carboxylic acid[2-(1-methylpyrrolidin-2-yl)ethyl]amide] the “% Inhibition of 5-HT uptake [10 μM]” value was 53%. `O=C(CC1CCCCC1)Nc1nc2c(s1)CCCC2C(=O)N1CCN(C(c2ccccc2)c2ccccc2)CC1` (stereo not shown) [Example 88, N-[4-(4-Benzhydrylpiperazin-1-carbonyl)-4,5,6,7-tetrahydrobenzthiazol-2-yl]-2-cyclohexylacetamide] gave an inhibition at 10 µM of 41%. In the case of `CCCCCC(=O)Nc1nc2c(s1)CCCC2C(=O)N1CCN(Cc2ccc(OC)c(F)c2)CC1` (stereo not shown) [Example 59, Hexanoic acid{4-[4-(3-fluoro-4-methoxybenzyl)piperazin-1-carbonyl]-4,5,6,7-tetrahydrobenzthiazol-2-yl}amide], the “% Inhibition of 5-HT uptake [10 μM]” value is reported as 46%. `O=C(Cc1cccs1)Nc1nc2c(s1)CCCC2C(=O)N1CCN(C(c2ccccc2)c2ccccc2)CC1` (stereo not shown) [Example 84, N-[4-(4-Benzhydrylpiperazin-1-carbonyl)-4,5,6,7-tetrahydrobenzthiazol-2-yl]-2-thiophen-2-ylacetamide] showed an inhibition at 10 µM of 53%. Work on `CN(CCCNC(=O)C1CCCc2sc(NC(=O)CC3CCCCC3)nc21)c1ccccc1` (stereo not shown) [Example 68, 2-(2-Cyclohexylacetylamino)-4,5,6,7-tetrahydrobenzthiazol-4-carboxylic acid [3-(methylphenyl-amino)propyl]amide] yielded an inhibition at 10 µM of 84%. Work on `CC1CCCCN1CCCNC(=O)C1CCCc2sc(NC(=O)C=Cc3ccco3)nc21` (stereo not shown) [Example 23, 2-(3-Furan-2-ylacryloylamino)-4,5,6,7-tetrahydrobenzthiazol-4-carboxylic acid [3-(2-methylpiperidin-1-yl)propyl]amid] yielded an inhibition at 10 µM of 57%. For `O=C(Cc1cc(F)cc(F)c1)Nc1nc2c(s1)CCCC2C(=O)N1CCN(c2cccc(C(F)(F)F)c2)CC1` (stereo not shown) [Example 74, 2-(3,5-Difluorophenyl)-N-{4-[4-(3-trifluoromethylphenyl)piperazin-1-carbonyl]-4,5,6,7-tetrahydrobenzthiazol-2-yl}acetamide], the inhibition at 10 µM was 82%. With `CN(C)CCNC(=O)C1CCCc2sc(NC(=O)COc3ccccc3)nc21` (stereo not shown) [Example 30, 2-(2-Phenoxyacetylamino)-4,5,6,7-tetrahydrobenzthiazol-4-carboxylic acid(2-dimethylaminoethyl)amide] the “% Inhibition of 5-HT uptake [10 μM]” value was 64%. `CCOc1cc(N2CCOCC2)c(OCC)cc1NC(=O)C1CCCc2sc(NC(=O)CC(C)(C)C)nc21` (stereo not shown) [Example 80, 2-(3,3-Dimethylbutyrylamino)-4,5,6,7-tetrahydrobenzthiazol-4-carboxylic acid (2,5-diethoxy-4-morpholin-4-ylphenyl)amide] gave an inhibition at 10 µM of 52%. Compound `CC=CC=CC(=O)Nc1nc2c(s1)CCCC2C(=O)NCC1CCN(Cc2ccc(-c3ccccc3)cc2)C1` (stereo not shown) [Example 37, 2-Hexa-2,4-dienoylamino-4,5,6,7-tetrahydrobenzthiazol-4-carboxylic acid (1-biphenyl-4-ylmethylpyrrolidin-3-yl)methylamide] has an inhibition at 10 µM of 44%. Compound `CCOc1ccccc1C(=O)Nc1nc2c(s1)CCCC2C(=O)N1CCCC1CN1CCCC1` (stereo not shown) [Example 31, 2-Ethoxy-N-[4-(2-pyrrolidin-1-ylmethylpyrrolidin-1-carbonyl)-4,5,6,7-tetrahydrobenzthiazol-2-yl]benzamide] has an inhibition at 10 µM of 59%. For `O=C(Cc1cccs1)Nc1nc2c(s1)CCCC2C(=O)N1CCCC1CN1CCCC1` (stereo not shown) [Example 5, N-[4-(2-Pyrrolidin-1-ylmethylpyrrolidin-1-carbonyl)-4,5,6,7-tetrahydrobenzthiazol-2-yl]-2-thiophen-2-ylacetamide], the inhibition at 10 µM was 41%. For `CCOc1ccccc1C(=O)Nc1nc2c(s1)CCCC2C(=O)N1CCN(c2ccccc2Cl)CC1` (stereo not shown) [Example 85, N-{4-[4-(2-Chlorophenyl)piperazin-1-carbonyl]-4,5,6,7-tetrahydrobenzthiazol-2-yl}-2-ethoxybenzamide], the inhibition at 10 µM was 48%. With `O=C(Nc1nc2c(s1)CCCC2C(=O)N1CCN(CC(=O)N2CCCC2)CC1)c1ccc2ccccc2c1` (stereo not shown) [Example 32, Naphthalene-2-carboxylic acid{4-[4-(2-oxo-2-pyrrolidin-1-ylethyl)piperazin-1-carbonyl]-4,5,6,7-tetrahydrobenzthiazol-2-yl}amide] the “% Inhibition of 5-HT uptake [10 μM]” value was 51%. In the case of `O=C(Cc1cc(F)cc(F)c1)Nc1nc2c(s1)CCCC2C(=O)N1CCN(C(c2ccccc2)c2ccccc2)CC1` (stereo not shown) [Example 83, N-[4-(4-Benzhydrylpiperazin-1-carbonyl)-4,5,6,7-tetrahydrobenzthiazol-2-yl]-2-(3,5-difluorophenyl)acetamide], the inhibition at 10 µM is reported as 44%.
